Data set [1] concerns respiratory viruses panel (Flu A (H1N1), Flu A (H3N2), Flu A (H5N1), Flu B, SARS CoV). It counts as cell-based.
Data set [2] concerns Flu A (H5N1) Duck/MN/1525/81. It counts as cell-based.
The test system of data set [3] is Flu A (H1N1) California/07/2009. Description: Primary antiviral assay. It counts as cell-based.
A further data set deals with Flu B Florida/4/2006. The data set is described as follows: Primary antiviral assay. The data set is classed as cell-based.
For data set [4], the system named is Flu A (H3N2) Perth/16/2009. Description: Primary antiviral assay. The data set is classed as cell-based.
Setting [5] is: 50% effective (virus-inhibitory) concentration.

The term EC50 denotes the concentration needed to bring the measured effect to its halfway point. A higher EC50 goes with lower potency in that assay.

Take `NC(=O)c1ncn([C@@H]2O[C@H](CO)[C@@H](O)[C@H]2O)n1` [Ribavirin]: the “activity of positive controls, in words” value in data set [1] is reported as “active as expected”. In “in vitro”, this molecule had a CC50 above 348 µM.

Take “oseltamivir carboxylate [Oseltamirvir-carboxylate]”: the EC50 in data set [2] was 0.11 µM; in data set [3] (setting [5]), 19 µM; with Flu B Florida/4/2006 (setting [5]) it was 3.52 µM; in data set [4] (setting [5]) it was 3.06 µM. Also, the SI is reported as above 326 in data set [2], above 1.9 in data set [3] ([…]), above 10 with Flu B Florida/4/2006 ([…]) and above 11 in data set [4] ([…]). Moreover, the “activity of positive controls, in words” value in data set [1] is listed as “active as expected”. The molecule further came in with a CC50 with uninfected cells above 35.2 µM.

Source of the values: article PMC7115615 (European Journal of Medicinal Chemistry, 2013).
